From US20250163104A1, “MACROCYCLIC IMMUNOMODULATORS” (priority 2021, published 2025)
Where a SMILES comes first, the peptide text is derived from it. Bridges are numbered along the chain shown (N, C = ends). [ ]: non-standard residue; d: D form. The star is where a group is joined. Phe(3-COOH) = N[C@@H](Cc1cccc(C(=O)O)c1)C(=O)O; Phe(4-COOH) = N[C@@H](Cc1ccc(C(=O)O)cc1)C(=O)O; Trp(7-F) = N[C@@H](Cc1c[nH]c2c(F)cccc12)C(=O)O; Trp(7-Me) = Cc1cccc2c(C[C@H](N)C(=O)O)c[nH]c12; Bip = N[C@@H](Cc1ccc(-c2ccccc2)cc1)C(=O)O; Phe(3-Me) = Cc1cccc(C[C@H](N)C(=O)O)c1; Cha = N[C@@H](CC1CCCCC1)C(=O)O; Cit = NC(=O)NCCC[C@H](N)C(=O)O; Hpra = C#CCC[C@H](N)C(=O)O; dDab = NCC[C@@H](N)C(=O)O; Carboxymethyl = O=C(O)C*; Orn = NCCC[C@H](N)C(=O)O; Pra = C#CC[C@H](N)C(=O)O; dDap = NC[C@@H](N)C(=O)O; Dab = NCC[C@H](N)C(=O)O; Dap = NC[C@H](N)C(=O)O; X2 = Cc1cnc(CN*)cn1; Propargyl = C#CC*

biological target: T1, human PD-1 / PD-L1-Ig binding on Jurkat cell line over-expressing human PD-1 (Jurkat-PD-1) (Homo sapiens, UniProt Q15116); assay: Jurkat-PD-1 Cell Binding High-Content Screening Assay (CBA); format: cell-based; details: Jurkat-PD-1 cells, PE-labeled PD-L1-Ig 20 nM final; read-out: Jurkat HPD1_PDL1 IC50
T1 construct: expressed in transfected cells; host or cells: Jurkat
Procedure, shortened: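 Read-out: high-content imaging of PE-tagged PD-L1-Ig bound to Jurkat cells overexpressing human PD-1, after fixation with 4% paraformaldehyde and Hoechst 33342 nuclear staining. Ligand was used at 20 nM final for 1 hour, after a 2 h compound exposure at 37° C in serum-containing DMEM.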

T1 sequence (Q15116 25-288): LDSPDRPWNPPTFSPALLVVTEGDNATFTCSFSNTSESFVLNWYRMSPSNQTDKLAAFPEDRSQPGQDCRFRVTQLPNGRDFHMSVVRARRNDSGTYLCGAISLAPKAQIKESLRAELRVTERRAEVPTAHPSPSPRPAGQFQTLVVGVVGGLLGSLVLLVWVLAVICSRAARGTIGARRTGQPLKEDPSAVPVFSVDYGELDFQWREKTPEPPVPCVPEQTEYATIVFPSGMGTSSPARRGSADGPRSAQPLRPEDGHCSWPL

Which IC50 does the source give for C#CC[C@H](NC(=O)[C@H](CCCN)NC(=O)[C@@H]1CSCC(=O)N[C@@H](CN)C(=O)N[C@@H](Cc2ccc(OCC(=O)O)cc2)C(=O)N[C@@H](CC(=O)O)C(=O)N[C@@H](Cc2cccc(C)c2)C(=O)N[C@@H](C(C)C)C(=O)N[C@@H](Cc2ccc(-c3ccccc3)cc2)C(=O)N[C@@H](C(C)C)C(=O)N[C@@H](CCCN)C(=O)N[C@H](CC(C)C)C(=O)N[C@@H](CCN)C(=O)N[C@@H](CC2CCCCC2)C(=O)N[C@@H](C(C)C)C(=O)N[C@@H]([C@@H](C)O)C(=O)N1)C(N)=O [Compound 2017] ({CH2CO}-[Dap]Y(Carboxymethyl)D[Phe(3-Me)]V[Bip]V[Orn][dL][Dab][Cha]VTC[Orn][Pra]-NH2; thioether N-14) here?
Its IC50 is 11.6 nM.

Which IC50 does the source give for Cc1cccc2c(C[C@@H]3NC(=O)[C@H](CC(=O)O)NC(=O)[C@H](Cc4ccc(OCC(=O)O)cc4)NC(=O)[C@H](CN)NC(=O)CSC[C@@H](C(=O)N[C@@H](CCN)C(N)=O)NC(=O)[C@H]([C@@H](C)O)NC(=O)[C@H](C(C)C)NC(=O)[C@H](CC4CCCCC4)NC(=O)[C@H](CCN)NC(=O)[C@@H](CC(C)C)NC(=O)[C@H](CCCN)NC(=O)[C@H](C(C)C)NC(=O)[C@H](Cc4ccc(-c5ccccc5)cc4)NC(=O)[C@H](C(C)C)NC3=O)c[nH]c12 [Compound 2018] ({CH2CO}-[Dap]Y(Carboxymethyl)D[Trp(7-Me)]V[Bip]V[Orn][dL][Dab][Cha]VTC[Dab]-NH2; thioether N-14) here?
Its IC50 is 335 nM.

With Cc1cccc(C[C@@H]2NC(=O)[C@H](CC(=O)O)NC(=O)[C@H](Cc3ccc(OCC(=O)O)cc3)NC(=O)[C@H](CN)NC(=O)CSC[C@@H](C(=O)N[C@@H](C)C(=O)NCc3cnc(C)cn3)NC(=O)[C@H](CN)NC(=O)[C@H](C(C)C)NC(=O)[C@H](CC3CCCCC3)NC(=O)[C@H](CCN)NC(=O)[C@@H](CC(C)C)NC(=O)[C@H](CCCN)NC(=O)[C@H](CCCNC(N)=O)NC(=O)[C@H](Cc3ccc(-c4ccccc4)cc3)NC(=O)[C@H](C(C)C)NC2=O)c1 [Compound 2019] ({CH2CO}-[Dap]Y(Carboxymethyl)D[Phe(3-Me)]V[Bip][Cit][Orn][dL][Dab][Cha]V[Dap]CA-X2; thioether N-14) as the molecule, how does the IC50 read?
The IC50 was 12.8 nM.

Which IC50 does the source give for CC(C)C[C@H]1NC(=O)[C@H](CCCN)NC(=O)[C@H](C(C)C)NC(=O)[C@H](Cc2ccc(-c3ccccc3)cc2)NC(=O)[C@H](C(C)C)NC(=O)[C@H](Cc2c[nH]c3c(F)cccc23)NC(=O)[C@H](CC(=O)O)NC(=O)[C@H](Cc2ccc(OCC(=O)O)cc2)NC(=O)[C@H](CN)NC(=O)CSC[C@@H](C(=O)N[C@@H](CCN)C(N)=O)NC(=O)[C@H]([C@@H](C)O)NC(=O)[C@H](C(C)C)NC(=O)[C@H](CC2CCCCC2)NC(=O)[C@H](CCN)NC1=O [Compound 2020] ({CH2CO}-[Dap]Y(Carboxymethyl)D[Trp(7-F)]V[Bip]V[Orn][dL][Dab][Cha]VTC[Dab]-NH2; thioether N-14) here?
Its IC50 is 13.1 nM.

With CC(C)C[C@@H]1NC(=O)[C@H](Cc2c[nH]c3ccccc23)NC(=O)[C@H](CC(=O)O)NC(=O)[C@H](Cc2cccc(C(=O)O)c2)NC(=O)[C@H](CN)NC(=O)CSC[C@@H](C(=O)NCC(N)=O)NC(=O)[C@H](CO)NC(=O)[C@H](C(C)C)NC(=O)[C@H](CC2CCCCC2)NC(=O)[C@H](CCN)NC(=O)[C@@H](CC(C)C)NC(=O)[C@H](CCCN)NC(=O)[C@H](C(C)C)NC(=O)[C@H](Cc2ccc(-c3ccccc3)cc2)NC1=O [Compound 2021] ({CH2CO}-[Dap][Phe(3-COOH)]DWL[Bip]V[Orn][dL][Dab][Cha]VSCG-NH2; thioether N-14) as the molecule, how does the IC50 read?
Its IC50 is 15.1 nM.

How did the IC50 turn out when C#CCOc1ccc(C[C@@H]2NC(=O)[C@H](Cc3cccc(C)c3)NC(=O)[C@H](CC(=O)O)NC(=O)[C@H](Cc3ccc(C(=O)O)cc3)NC(=O)[C@H](CN)NC(=O)CSC[C@@H](C(=O)N[C@@H](CCN)C(N)=O)NC(=O)[C@H]([C@@H](C)O)NC(=O)[C@H](C(C)C)NC(=O)[C@H](CC3CCCCC3)NC(=O)[C@H](CCN)NC(=O)[C@@H](CC(C)C)NC(=O)[C@H](CCCN)NC(=O)[C@H](C(C)C)NC(=O)[C@H](Cc3ccc(-c4ccccc4)cc3)NC2=O)cc1 [Compound 2022] ({CH2CO}-[Dap][Phe(4-COOH)]D[Phe(3-Me)]Y(Propargyl)[Bip]V[Orn][dL][Dab][Cha]VTC[Dab]-NH2; thioether N-14) was run?
The IC50 was 6.9 nM.

With C#CCC[C@@H]1NC(=O)[C@H](Cc2ccc(-c3ccccc3)cc2)NC(=O)[C@H](C(C)C)NC(=O)[C@H](Cc2cccc(C)c2)NC(=O)[C@H](CC(=O)O)NC(=O)[C@H](Cc2ccc(C(=O)O)cc2)NC(=O)[C@H](CN)NC(=O)CSC[C@@H](C(=O)N[C@@H](CCN)C(N)=O)NC(=O)[C@H]([C@@H](C)O)NC(=O)[C@H](C(C)C)NC(=O)[C@H](CC2CCCCC2)NC(=O)[C@H](CCN)NC(=O)[C@@H](CC(C)C)NC(=O)[C@H](CCCN)NC1=O [Compound 2023] ({CH2CO}-[Dap][Phe(4-COOH)]D[Phe(3-Me)]V[Bip][Hpra][Orn][dL][Dab][Cha]VTC[Dab]-NH2; thioether N-14) as the molecule, how does the IC50 read?
The IC50 was 11.4 nM.

Which IC50 does the source give for C#CCOc1ccc(C[C@@H]2NC(=O)[C@H](Cc3ccc(-c4ccccc4)cc3)NC(=O)[C@H](C(C)C)NC(=O)[C@H](Cc3cccc(C)c3)NC(=O)[C@H](CC(=O)O)NC(=O)[C@H](Cc3ccc(C(=O)O)cc3)NC(=O)[C@H](CN)NC(=O)CSC[C@@H](C(=O)N[C@@H](CCN)C(N)=O)NC(=O)[C@H]([C@@H](C)O)NC(=O)[C@H](C(C)C)NC(=O)[C@H](CC3CCCCC3)NC(=O)[C@H](CCN)NC(=O)[C@@H](CC(C)C)NC(=O)[C@H](CCCN)NC2=O)cc1 [Compound 2024] ({CH2CO}-[Dap][Phe(4-COOH)]D[Phe(3-Me)]V[Bip]Y(Propargyl)[Orn][dL][Dab][Cha]VTC[Dab]-NH2; thioether N-14) here?
The IC50 was 13.6 nM.

With C#CCC[C@@H]1NC(=O)[C@@H](CC(C)C)NC(=O)[C@H](CCCN)NC(=O)[C@H](C(C)C)NC(=O)[C@H](Cc2ccc(-c3ccccc3)cc2)NC(=O)[C@H](C(C)C)NC(=O)[C@H](Cc2cccc(C)c2)NC(=O)[C@H](CC(=O)O)NC(=O)[C@H](Cc2ccc(C(=O)O)cc2)NC(=O)[C@H](CN)NC(=O)CSC[C@@H](C(=O)N[C@@H](CCN)C(N)=O)NC(=O)[C@H]([C@@H](C)O)NC(=O)[C@H](C(C)C)NC(=O)[C@H](CC2CCCCC2)NC1=O [Compound 2025] ({CH2CO}-[Dap][Phe(4-COOH)]D[Phe(3-Me)]V[Bip]V[Orn][dL][Hpra][Cha]VTC[Dab]-NH2; thioether N-14) as the molecule, how does the IC50 read?
The IC50 was 15 nM.

C#CCOc1ccc(C[C@@H]2NC(=O)[C@@H](CC(C)C)NC(=O)[C@H](CCCN)NC(=O)[C@H](C(C)C)NC(=O)[C@H](Cc3ccc(-c4ccccc4)cc3)NC(=O)[C@H](C(C)C)NC(=O)[C@H](Cc3cccc(C)c3)NC(=O)[C@H](CC(=O)O)NC(=O)[C@H](Cc3ccc(C(=O)O)cc3)NC(=O)[C@H](CN)NC(=O)CSC[C@@H](C(=O)N[C@@H](CCN)C(N)=O)NC(=O)[C@H]([C@@H](C)O)NC(=O)[C@H](C(C)C)NC(=O)[C@H](CC3CCCCC3)NC2=O)cc1 [Compound 2026] ({CH2CO}-[Dap][Phe(4-COOH)]D[Phe(3-Me)]V[Bip]V[Orn][dL]Y(Propargyl)[Cha]VTC[Dab]-NH2; thioether N-14) was tested. Which IC50 did it give?
The IC50 was 133 nM.

C#CCC[C@@H]1NC(=O)[C@H](CC2CCCCC2)NC(=O)[C@H](CCN)NC(=O)[C@@H](CC(C)C)NC(=O)[C@H](CCCN)NC(=O)[C@H](C(C)C)NC(=O)[C@H](Cc2ccc(-c3ccccc3)cc2)NC(=O)[C@H](C(C)C)NC(=O)[C@H](Cc2cccc(C)c2)NC(=O)[C@H](CC(=O)O)NC(=O)[C@H](Cc2ccc(C(=O)O)cc2)NC(=O)[C@H](CN)NC(=O)CSC[C@@H](C(=O)N[C@@H](CCN)C(N)=O)NC(=O)[C@H]([C@@H](C)O)NC1=O [Compound 2027] ({CH2CO}-[Dap][Phe(4-COOH)]D[Phe(3-Me)]V[Bip]V[Orn][dL][Dab][Cha][Hpra]TC[Dab]-NH2; thioether N-14) was tested. Which IC50 did it give?
The IC50 was 10.3 nM.

C#CCOc1ccc(C[C@@H]2NC(=O)[C@H](CC3CCCCC3)NC(=O)[C@H](CCN)NC(=O)[C@@H](CC(C)C)NC(=O)[C@H](CCCN)NC(=O)[C@H](C(C)C)NC(=O)[C@H](Cc3ccc(-c4ccccc4)cc3)NC(=O)[C@H](C(C)C)NC(=O)[C@H](Cc3cccc(C)c3)NC(=O)[C@H](CC(=O)O)NC(=O)[C@H](Cc3ccc(C(=O)O)cc3)NC(=O)[C@H](CN)NC(=O)CSC[C@@H](C(=O)N[C@@H](CCN)C(N)=O)NC(=O)[C@H]([C@@H](C)O)NC2=O)cc1 [Compound 2028] ({CH2CO}-[Dap][Phe(4-COOH)]D[Phe(3-Me)]V[Bip]V[Orn][dL][Dab][Cha]Y(Propargyl)TC[Dab]-NH2; thioether N-14) was tested. Which IC50 did it give?
Its IC50 is 9.3 nM.

With Cc1cccc(C[C@@H]2NC(=O)[C@H](CC(=O)O)NC(=O)[C@H](Cc3ccc(C(=O)O)cc3)NC(=O)[C@H](CN)NC(=O)CSC[C@@H](C(=O)N[C@@H](CCN)C(N)=O)NC(=O)[C@@H](CCN)NC(=O)[C@H](C(C)C)NC(=O)[C@H](CC3CCCCC3)NC(=O)[C@H](CCN)NC(=O)[C@@H](CC(C)C)NC(=O)[C@H](CCCN)NC(=O)[C@H](C(C)C)NC(=O)[C@H](Cc3ccc(-c4ccccc4)cc3)NC(=O)[C@H](C(C)C)NC2=O)c1 [Compound 2029] ({CH2CO}-[Dap][Phe(4-COOH)]D[Phe(3-Me)]V[Bip]V[Orn][dL][Dab][Cha]V[dDab]C[Dab]-NH2; thioether N-14) as the molecule, how does the IC50 read?
The IC50 was 4.1 nM.

Cc1cccc(C[C@@H]2NC(=O)[C@H](CC(=O)O)NC(=O)[C@H](Cc3ccc(C(=O)O)cc3)NC(=O)[C@H](CN)NC(=O)CSC[C@@H](C(=O)N[C@@H](CCN)C(N)=O)NC(=O)[C@@H](CN)NC(=O)[C@H](C(C)C)NC(=O)[C@H](CC3CCCCC3)NC(=O)[C@H](CCN)NC(=O)[C@@H](CC(C)C)NC(=O)[C@H](CCCN)NC(=O)[C@H](C(C)C)NC(=O)[C@H](Cc3ccc(-c4ccccc4)cc3)NC(=O)[C@H](C(C)C)NC2=O)c1 [Compound 2030] ({CH2CO}-[Dap][Phe(4-COOH)]D[Phe(3-Me)]V[Bip]V[Orn][dL][Dab][Cha]V[dDap]C[Dab]-NH2; thioether N-14) was tested. Which IC50 did it give?
The IC50 was 14.7 nM.
